Paper PMC12524618, “Conformational Dynamics of the Active Site Loop in Dihydroorotase Highlighting the Limitations of Loop-In Structures for Inhibitor Docking” (International Journal of Molecular Sciences, 2025)

What was measured:
[1] = biological target: T1, Saccharomyces cerevisiae dihydroorotase (DHOase) (Saccharomyces cerevisiae, UniProt P20051); experiment: spectrophotometric assay of dihydroorotate hydrolysis at […] nm with purified recombinant enzyme; […] inhibition at […]; type: biochemical
T1 construct: gene URA4
T1 sequence (P20051 1-364): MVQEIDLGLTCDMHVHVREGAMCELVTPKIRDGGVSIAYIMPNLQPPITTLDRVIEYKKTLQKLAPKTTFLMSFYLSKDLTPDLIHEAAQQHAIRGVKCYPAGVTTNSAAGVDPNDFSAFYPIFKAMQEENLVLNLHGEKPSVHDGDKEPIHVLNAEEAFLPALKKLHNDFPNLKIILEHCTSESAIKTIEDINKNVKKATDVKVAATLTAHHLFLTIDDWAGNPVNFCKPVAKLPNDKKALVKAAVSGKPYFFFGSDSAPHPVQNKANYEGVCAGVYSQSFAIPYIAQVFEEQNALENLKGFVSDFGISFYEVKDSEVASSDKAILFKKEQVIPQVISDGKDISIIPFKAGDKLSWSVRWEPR

[2] = biological target: T1, Saccharomyces cerevisiae dihydroorotase (DHOase); experiment: spectrophotometric assay of dihydroorotate hydrolysis at […] nm with purified recombinant enzyme; type: biochemical

SMILES | IC50 [1] [µM] | IC50 [2] [µM]
O=C(O)c1[nH]c(=O)[nH]c(=O)c1F [5-FOA] | > 600 | –
O=c1c(O)c(-c2cc(O)c(O)c(O)c2)oc2cc(O)cc(O)c12 [myricetin] | – | 12.5 ± 0.47
